Test results published in patent US12268691B2 (Sinopia Biosciences, Inc., priority 2016, dated 2025).

What was measured:
[1] = test system: 433 gene transcriptomic signature; conditions: 10 uM, MCF7 cells; FIG. 3
CYP1A2 = target: T1, CYP1A2 (Homo sapiens, UniProt P05177); conditions: cited from earlier work
T1 sequence (P05177 1-516): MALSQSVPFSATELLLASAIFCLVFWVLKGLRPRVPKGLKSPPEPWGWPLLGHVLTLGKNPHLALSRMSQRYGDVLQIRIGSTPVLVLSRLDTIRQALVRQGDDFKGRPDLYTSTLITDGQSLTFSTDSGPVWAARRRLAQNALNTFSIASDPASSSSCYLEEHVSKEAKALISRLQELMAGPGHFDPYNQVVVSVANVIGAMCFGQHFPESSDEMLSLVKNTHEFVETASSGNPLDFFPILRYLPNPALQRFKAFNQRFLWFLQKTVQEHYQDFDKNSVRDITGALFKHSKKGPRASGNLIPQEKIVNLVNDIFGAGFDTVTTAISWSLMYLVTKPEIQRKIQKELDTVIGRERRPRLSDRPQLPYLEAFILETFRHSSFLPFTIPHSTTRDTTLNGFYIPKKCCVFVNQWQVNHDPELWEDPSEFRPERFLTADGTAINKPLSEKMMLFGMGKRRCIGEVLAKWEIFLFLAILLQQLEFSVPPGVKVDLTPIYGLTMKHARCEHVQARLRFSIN

extrapyramidal syndrome propensity score, compound alone [1]: much higher propensity than risperidone
SMILES: O=C(CCCN1CCC(O)(c2ccc(Cl)cc2)CC1)c1ccc(F)cc1 [haloperidol]
interaction with CYP1A2 (CYP1A2): has not been shown to interact with haloperidol
